How the values were obtained:
[1] = system: Ova-specific CD8+ T cells; test: Proliferation of CFSE-stained T cells co-cultured with treated DC: CD8+ T cells; format: cell-based, OT1-tg mice; details: DC incubated with 10 μg/mL for 24 h, co-culture 4 days
Description: (§1) T cell-mediated immune responses were investigated 96 h by measuring the proliferation of cells recovered from spleens after restimulation with BPPcysOva^mPEG. Non-Ag restimulated spleen cells were chosen as negative controls (FIG. 3). […] Taking into consideration that the BPPcysOva^mPEG has a promising effect on DC activation and maturation, next the capacity of these APC to stimulate the proliferation of antigen-specific CD8+ and CD4+ T cells was evaluated. Concentrations below 10^−8 M of BPPcysOva^mPEG were still able to induce an antigen specific proliferation of CD4+ T cells shown by the reduction of CFSE+ cells (FIGS. 4A-E).
(§2) FIG. 4: Proliferation of CD8+, CD4+ and regulatory T cells. DC were generated from bone marrow of C57BL/6 mice and incubated with 10 μg/mL of B) Ova C) Ova peptides, D) Ova in the presence of BPPcysMPEG and E) BPPcysOva^mPEG alone (A) Control) for 24 h. The following day, CD4+ T cells from spleens of OT2-tg animals or CD8+ T cells of OT1-tg animals were isolated. After staining with CFSE, CD8+, CD4+ T cells were co-cultured with adjuvant-treated DCs for 4 days. The decrease of CFSE-FITC expression due to cell division of CD8+ or CD4+ T cells were analysed by flow cytometric analysis. One representative experiment out of two is shown.

[2] = system: Ova-specific CD4+CD25+Foxp3+ regulatory T cells; test: Proliferation of T cells co-cultured with treated DC: regulatory T cells; format: cell-based, OTII mice; details: DC incubated with 10 μg/mL for 24 h, co-culture 4 days
Description: as §1, §2

spleen cells = test: Proliferation of spleen cells of immunized mice after in vitro restimulation with Ova, day 42 (Example 5); format: in vivo; details: i.n., restimulation with Ova
Description: Experimental protocol: Spleens were removed and pooled for analysis of cellular immune responses. Cells were grown in RPMI 1640 supplemented with 10% fetal calf serum, 100 U/ml of penicillin, 50 μg/ml of streptomycin, 5×10^−5 M 2-mercaptoethanol and 1 mM L-glutamine (GIBCO BRL, Karlsruhe, Germany) and maintained at 37° C. in a humidified 5% CO2 atmosphere. Lymph node and spleen cell suspensions were adjusted to 5×10^6 cells/ml in complete medium, cells were seeded with 100 μl per well in a flat-bottomed 96-well microtiter plate (Nunc) and plates were incubated for 4 days in the presence of different concentrations of Ova. Each concentration was tested in triplicates. During the final 18 h of culture, 1 μCi of [^3H]thymidine (Amersham International, Freiburg, Germany) was added to each well. Cells were then harvested on paper filters (Filtermat A; Wallac, Freiburg, Germany) by using a cell harvester (Inotech, Wohlen, Switzerland), and the amount of incorporated [^3H]thymidine into the DNA of proliferating cells was determined by a β-scintillation counter (Wallac 1450, Micro-Trilux). The results are expressed as the arithmetic mean of [^3H]thymidine uptake in cpm.
T cell-mediated immune responses were investigated at day 42 by measuring the proliferation of cells recovered from spleens after in vitro restimulation with Ova. […]

## CD4 peptide: Ova CD4 epitope peptide alone (KISQAVHAAHAEINEAG; UniProt P01012 323-339, looked up, fragment) [reference compound]
[1]
  stimulation of proliferation of Ova-specific CD8+ T cells by treated DC: weak stimulation
[2]
  stimulation of proliferation of Ova-specific CD4+CD25+Foxp3+ regulatory T cells by treated DC: very efficiently

B1: LPS free Ova: EndoGrade Ovalbumin, Hyglos GmbH (protein, UniProt P01012 2-386, looked up)
Ovalbumin: GSIGAASMEFCFDVFKELKVHHANENIFYCPIAIMSALAMVYLGAKDSTRTQINKVVRFDKLPGFGDSIEAQCGTSVNVHSSLRDILNQITKPNDVYSFSLASRLYAEERYPILPEYLQCVKELYRGGLEPINFQTAADQARELINSWVESQTNGIIRNVLQPSSVDSQTAMVLVNAIVFKGLWEKAFKDEDTQAMPFRVTEQESKPVQMMYQIGLFRVASMASEKMKILELPFASGTMSMLVLLPDEVSGLEQLESIINFEKLTEWTSSNVMEERKIKVYLPRMKMEEKYNLTSVLMAMGITDVFSSSANLSGISSAESLKISQAVHAAHAEINEAGREVVGSAEAGVDAASVSEEFRADHPFLFCIKHIATNAVLFFGRCVSP
modifications: endotoxin-free
notes: EndoGrade Ovalbumin, Hyglos GmbH
Spleen cells
  proliferative response of spleen cells, i.n. immunization: failed to induce detectable cellular proliferation
